Measured values reported in publication PMC12775434, “Ultra-large virtual screening unveils potent agonists of the neuromodulatory orphan receptor GPR139” (Nature Communications, 2025).
Several values for one entry are separate records, joined by “and”; a condition that tells them apart may be missing. Equal entries are not always repeated.

What was measured:
Format in all cases: cell-based
[1] = biological target: T1, GPR139 (Homo sapiens, UniProt Q6DWJ6); assay: Ca2+ mobilization assay, antagonist mode (EC80 800 nM Lundbeck Cmp 1a after 20 min preincubation), GPR139-CHOk1; conditions: individual replicates (Supplementary Figure 4)
T1 sequence (Q6DWJ6 1-353): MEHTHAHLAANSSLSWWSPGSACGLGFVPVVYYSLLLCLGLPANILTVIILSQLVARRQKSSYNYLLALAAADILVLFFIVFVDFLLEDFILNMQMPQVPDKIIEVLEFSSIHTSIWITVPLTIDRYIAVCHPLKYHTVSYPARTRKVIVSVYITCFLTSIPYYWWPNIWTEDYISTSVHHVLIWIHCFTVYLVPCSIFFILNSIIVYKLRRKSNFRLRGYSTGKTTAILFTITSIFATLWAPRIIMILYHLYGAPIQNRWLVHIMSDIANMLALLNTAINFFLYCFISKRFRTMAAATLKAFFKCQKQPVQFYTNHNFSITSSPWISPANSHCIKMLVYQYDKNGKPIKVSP
Summary of the method: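 Fluo-4-loaded GPR139-CHOk1 cells in HEPES-buffered HBSS (pH 7.4, 2.5 mM probenecid) given test compounds at 10 µM, then after 20 min challenged with 800 nM Lundbeck Cmp 1a (EC80). Calcium fluorescence read at 37 °C, 485/525 nm.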

[2] = biological target: T2, human muscarinic acetylcholine M1 receptor (M1R) (Homo sapiens, UniProt P11229); assay: Ca2+ mobilization counter-screen in M1R-CHOk1 cells; conditions: individual replicates (Supplementary Figure 5)
T2 sequence (P11229 1-460): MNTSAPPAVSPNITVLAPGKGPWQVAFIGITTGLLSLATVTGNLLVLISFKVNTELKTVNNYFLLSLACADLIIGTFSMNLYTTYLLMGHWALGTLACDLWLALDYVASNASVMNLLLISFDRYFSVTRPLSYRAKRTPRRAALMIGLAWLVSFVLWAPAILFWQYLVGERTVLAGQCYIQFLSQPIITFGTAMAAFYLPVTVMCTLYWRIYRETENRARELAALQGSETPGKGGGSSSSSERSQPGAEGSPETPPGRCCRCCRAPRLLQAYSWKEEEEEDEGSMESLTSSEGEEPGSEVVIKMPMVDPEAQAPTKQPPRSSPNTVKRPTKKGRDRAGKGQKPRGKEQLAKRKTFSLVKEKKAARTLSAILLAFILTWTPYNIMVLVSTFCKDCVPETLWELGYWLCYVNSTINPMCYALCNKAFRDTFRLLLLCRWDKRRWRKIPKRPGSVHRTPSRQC
Summary of the method: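 Intracellular calcium is tracked by Fluo-4 fluorescence at 37 °C in M1R-CHOk1 cells, with compounds dispensed automatically once baseline is taken. Buffer is HBSS with 20 mM HEPES, pH 7.4, plus 2.5 mM probenecid.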

[3] = biological target: T1, GPR139; assay: Ca2+ mobilization assay, agonist mode, stable GPR139-CHOk1 cell line; conditions: for EC50 / Emax: Supplementary Table 2, mean ± SEM; for EC50: read-out: pEC50 Ca2+ (converted); for Emax: normalized to Lundbeck Cmp 1a, read-out: Emax (%) Ca2+
Summary of the method: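 Agonist activity of compounds is assessed in stably transfected CHO-K1 cells using the calcium dye Fluo-4 at 37 °C in HEPES-buffered HBSS (pH 7.4). Efficacy is expressed relative to the reference agonist Lundbeck Cmp 1a, set as 100%.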

[4] = Agonist mode, individual replicates (Supplementary Figure 4)
[5] = log [Compound] M = -4.5, individual replicate columns
[6] = log [Compound] M = -5.0, individual replicate columns
[7] = log [Compound] M = -5.5, individual replicate columns
[8] = log [Compound] M = -6.0, individual replicate columns
[9] = log [Compound] M = -6.5, individual replicate columns
[10] = log [Compound] M = -7.0, individual replicate columns
[11] = log [Compound] M = -7.5, individual replicate columns
[12] = log [Compound] M = -8.0, individual replicate columns
[13] = log [Compound] M = -8.5, individual replicate columns
[14] = log [Compound] M = -9.0, individual replicate columns

Row | EC50 [3] | Emax [3] | Compound | Ca2+ signal (% of Cmp 1a) [1] | Ca2+ signal (% of Carbachol) [2] | Ca2+ signal (% of Cmp 1a) [3, 4] | Ca2+ signal (% of Cmp 1a) [3, 5] | Ca2+ signal (% of Cmp 1a) [3, 6] | Ca2+ signal (% of Cmp 1a) [3, 7] | Ca2+ signal (% of Cmp 1a) [3, 8] | Ca2+ signal (% of Cmp 1a) [3, 9] | Ca2+ signal (% of Cmp 1a) [3, 10] | Ca2+ signal (% of Cmp 1a) [3, 11] | Ca2+ signal (% of Cmp 1a) [3, 12] | Ca2+ signal (% of Cmp 1a) [3, 13] | Ca2+ signal (% of Cmp 1a) [3, 14] | change in potency with larger substituents on the thiophene ring ([3]; Ca2+ mobilization)
1 | 2000 nM | 96 ± 6% | CCn1nc(-c2nc(CC(=O)NC(C)c3ccccc3)no2)cc1C (stereo not shown) [Compound 1.27, CCN1N=C(C2=NC(CC(NC(C3=CC=CC=C3)C)=O)=NO2)C=C1C] | 24 % of Cmp 1a and -1.33 % of Cmp 1a and 22 % of Cmp 1a | -1.81 % of Carbachol and 1.46 % of Carbachol and 5 % of Carbachol | 81 % of Cmp 1a and 93 % of Cmp 1a and 60 % of Cmp 1a | 101 % of Cmp 1a and 107 % of Cmp 1a and 86 % of Cmp 1a | 91 % of Cmp 1a and 71 % of Cmp 1a and 89 % of Cmp 1a | 56 % of Cmp 1a and 61 % of Cmp 1a and 76 % of Cmp 1a | 25 % of Cmp 1a and 33 % of Cmp 1a and 48 % of Cmp 1a | 9 % of Cmp 1a and 7 % of Cmp 1a and 10 % of Cmp 1a | 4.22 % of Cmp 1a and -3 % of Cmp 1a and 6.42 % of Cmp 1a | 8 % of Cmp 1a and 2.12 % of Cmp 1a and -0.804 % of Cmp 1a | 0.271 % of Cmp 1a and 9 % of Cmp 1a and -0.437 % of Cmp 1a | -3 % of Cmp 1a and 2.65 % of Cmp 1a and 6.66 % of Cmp 1a | 4 % of Cmp 1a and -0.687 % of Cmp 1a and 5 % of Cmp 1a | –
2 | 2510 nM | 66 ± 3% | CC(=O)c1ccc(-c2nc(CC(=O)NC(C)c3ccccc3)no2)s1 (stereo not shown) [Compound 1.28, CC(C1=CC=CC=C1)NC(CC2=NOC(C3=CC=C(C(C)=O)S3)=N2)=O] | 19 % of Cmp 1a and 58 % of Cmp 1a and 22 % of Cmp 1a | -12 % of Carbachol and -1.79 % of Carbachol and -4.4 % of Carbachol | 64 % of Cmp 1a and 62 % of Cmp 1a and 50 % of Cmp 1a | 66 % of Cmp 1a and 68 % of Cmp 1a and 55 % of Cmp 1a and 56 % of Cmp 1a and 59 % of Cmp 1a | 77 % of Cmp 1a and 66 % of Cmp 1a and 55 % of Cmp 1a and 46 % of Cmp 1a and 59 % of Cmp 1a | 54 % of Cmp 1a and 43 % of Cmp 1a and 37 % of Cmp 1a and 21 % of Cmp 1a and 29 % of Cmp 1a | 23 % of Cmp 1a and 21 % of Cmp 1a and 9 % of Cmp 1a and 3.16 % of Cmp 1a and 14 % of Cmp 1a | 6.51 % of Cmp 1a and 1.59 % of Cmp 1a and -12 % of Cmp 1a and -2.27 % of Cmp 1a and -4.37 % of Cmp 1a | -1.28 % of Cmp 1a and 2.34 % of Cmp 1a and -6.44 % of Cmp 1a and 7 % of Cmp 1a and -2 % of Cmp 1a | 0.626 % of Cmp 1a and 6.36 % of Cmp 1a and -9 % of Cmp 1a and -0.267 % of Cmp 1a and 3 % of Cmp 1a | -4.49 % of Cmp 1a and 4.31 % of Cmp 1a and -8 % of Cmp 1a and 1.18 % of Cmp 1a and -3.25 % of Cmp 1a | -6.33 % of Cmp 1a and -0.329 % of Cmp 1a and -3.24 % of Cmp 1a and -1.55 % of Cmp 1a and -1.43 % of Cmp 1a | -6.38 % of Cmp 1a and -2.27 % of Cmp 1a and -10 % of Cmp 1a and -4 % of Cmp 1a and 1.43 % of Cmp 1a | three-fold reduction to a complete loss of activity
